Source: patent US6046331A, “Imidazolones and their use in treating benign prostatic hyperplasia and other disorders” (Synaptic Pharmaceutical Corporation, priority 1998, dated 2000)
pKi: −log10 of the molar value.

Each molecule was assayed against T1, human α1a receptor (Homo sapiens, UniProt P35348) (assay: Radioligand binding ([^3 H]prazosin) at cloned human α1a receptor). Conditions: LM(tk-) cell membranes, read-out: hα1a Ki.
T1 construct: The entire coding region of α1a (1401 bp); expressed in transfected cells; host or cells: LM(tk-) mouse fibroblast line L-α1C (old nomenclature), ATCC CR 11140
T1 sequence (P35348 1-466): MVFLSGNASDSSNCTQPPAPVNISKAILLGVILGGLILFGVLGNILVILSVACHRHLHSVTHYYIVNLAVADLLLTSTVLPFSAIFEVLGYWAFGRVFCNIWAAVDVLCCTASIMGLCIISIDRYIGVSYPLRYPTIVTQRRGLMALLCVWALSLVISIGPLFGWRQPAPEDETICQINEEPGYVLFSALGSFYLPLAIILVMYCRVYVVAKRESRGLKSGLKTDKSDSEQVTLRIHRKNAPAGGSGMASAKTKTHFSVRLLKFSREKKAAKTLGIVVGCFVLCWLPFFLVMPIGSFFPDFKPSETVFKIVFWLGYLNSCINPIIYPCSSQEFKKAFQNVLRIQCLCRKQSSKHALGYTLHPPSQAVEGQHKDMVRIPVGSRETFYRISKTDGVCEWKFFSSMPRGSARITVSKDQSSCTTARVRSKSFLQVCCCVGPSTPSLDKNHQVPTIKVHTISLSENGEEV
Description: Binding affinities were measured for selected compounds of the invention at six cloned human α1 and α2 receptor subtypes, as well as at the L-type calcium channel. The protocols for these experiments are given below.
The activity of compounds at the different human receptors was determined in vitro using cultured cell lines that selectively express the receptor of interest. These cell lines were prepared by transfecting the cloned cDNA or cloned genomic DNA or constructs containing both genomic DNA and cDNA encoding the human α-adrenergic receptors as follows:
α1a Human Adrenergic Receptor: The entire coding region of α1a (1401 bp), including 400 base pairs of 5' untranslated sequence (5' UT) and 200 bp of 3' untranslated sequence (3' UT), was cloned into the KpnI site of the polylinker-modified pCEXV-3-derived eukaryotic expression vector, EXJ.RH. The construct involved ligating three partial overlapping fragments: a 5' 0.6 kb HincII genomic clone, a central 1.8 EcoRI hippocampal cDNA clone, and a 3' 0.6Kb PstI genomic clone. The hippocampal cDNA fragment overlaps with the 5' and 3' genomic clones so that the HincII and PstI sites at the 5' and 3' ends of the cDNA clone, respectively, were utilized for ligation. This full-length clone was cloned into the KpnI site of the expression vector, using the 5' and 3' KpnI sites of the fragment, derived from vector (i.e., pBluescript) and 3'-untranslated sequences, respectively. Stable cell lines were selected as described above. The stable cell line expressing the human α1a receptor used herein was designated L-α1C (old nomenclature) and was deposited with the American Type Culture Collection, 12301 Parklawn Drive, Rockville, Md. 20852, U.S.A. under the provisions of the Budapest Treaty for the International Recognition of the Deposit of Microorganisms for the Purposes of Patent Procedure. The cell line expressing the human α1a receptor was accorded Accession No. CR 11140, on Sep. 25, 1992.
Radioligand Binding Assays for α1 receptors:
Transfected cells from culture flasks were scraped into 5 ml of 5 mM Tris-HCl, 5 mM EDTA, pH 7.5, and lysed by sonication. The cell lysates were centrifuged at 1000 rpm for 5 min at 4° C., and the supernatant was centrifuged at 30,000× g for 20 min at 4° C. The pellet was suspended in 50 mM Tris-HCl, 1 mM MgCl2, and 0.1% ascorbic acid at pH 7.5. Binding of the α1 antagonist [^3 H]prazosin (0.5 nM, specific activity 76.2 Ci/mmol) to membrane preparations of LM(tk-) cells was done in a final volume of 0.25 ml and incubated at 37° C. for 20 min. Nonspecific binding was determined in the presence of […] phentolamine. The reaction was stopped by filtration through GF/B filters using a cell harvester. Inhibition experiments, routinely consisting of 7 concentrations of the tested compounds, were analyzed using a non-linear regression curve-fitting computer program to obtain Ki values.
The compounds described above were assayed using cloned human alpha adrenergic receptors. […] The binding affinities of several compounds are illustrated in the following table.
Binding affinities of selected compounds of the present invention at cloned human α1d, α1b and α1a receptors. (h=human)

| Compound | pKi |
| --- | --- |
| COC(=O)c1[nH]c(=O)n(CCCCCN2CCC(C(=O)OC)(c3ccccc3)CC2)c1Cc1ccc(F)c(F)c1 [Compound 37, 5-(3,4-Difluorobenzyl)-2,3-dihydro-4-methoxycarbonyl-1-(5-(4-methoxycarbonyl-4-phenylpiperidin-1-yl)pent-1-yl)-2(1H) -imidazolone] | 8.35 |
| COC(=O)c1ccccc1N1CCN(CCCCCn2c(-c3cc(F)c(F)c(F)c3)c(C(=O)OC)[nH]c2=O)CC1 [Compound 5, 5-(3,4,5-Trifluorophenyl)-2,3-dihydro-4-methoxycarbonyl-1-(5-(4-(2-methoxycarbonylphenyl)piperazin-1-yl)pent-1-yl)-2(1H)-imidazolone] | 10.00 |
| COC(=O)c1[nH]c(=O)n(CCCCCN2CCC(C(=O)OC)(c3ccccc3)CC2)c1-c1ccc(F)c(F)c1 [Compound 1, 1-(5-(4-Methoxycarbonyl-4-phenylpiperidin-1-yl)pent-1-yl)-4-methoxycarbonyl-5-(3,4-difluorophenyl)-2,3-dihydro-2(1H)-imidazolone] | 8.74 |
| COC(=O)c1[nH]c(=O)n(CCCCCN2CCC(C#N)(c3ccccc3)CC2)c1-c1ccc(F)c(F)c1 [Compound 2, 5-(3,4-Difluorophenyl)-2,3-dihydro-4-methoxycarbonyl-1-(5-(4-cyano-4-phenylpiperidin-1-yl)pent-1-yl)-2(1H)-imidazolone] | 8.39 |
| COC(=O)c1[nH]c(=O)n(CCCCCN2CCC(O)(c3ccccc3)CC2)c1-c1ccc(F)c(F)c1 [Compound 3, 5-(3,4-Difluorophenyl)-2,3-dihydro-4-methoxycarbonyl-1-(5-(4-hydroxy-4-phenylpiperidin-1-yl)pent-1-yl)-2(1H)-imidazolone] | 7.68 |
| CCOC(=O)c1[nH]c(=O)n(CCCCCN2CCN(c3ccccc3C(N)=O)CC2)c1-c1ccc(F)c(F)c1 [Compound 6, 1-(5-(4-(2-Aminocarbonylphenyl)piperazin-1-yl)pent-1-yl)-4-ethoxycarbonyl-5-(3,4-difluorophenyl)-2,3-dihydro-2(1H)-imidazolone] | 8.85 |
| COC(=O)c1[nH]c(=O)n(CCCCCN2CCN(c3ccccc3C(N)=O)CC2)c1-c1cc(F)c(F)c(F)c1 [Compound 4, 1-(5-(4-(2-Aminocarbonylphenyl)piperazin-1-yl)pent-1-yl)-5-(3,4,5-trifluorophenyl)-2,3-dihydro-4-methoxycarbonyl-2(1H)-imidazolone] | 8.82 |
| COC(=O)c1[nH]c(=O)n(CCCCCN2CCN(c3ccccc3C(N)=O)CC2)c1-c1cc(F)c(F)cc1F [Compound 7, 1-(5-(4-(2-Aminocarbonylphenyl)piperazin-1-yl)pent-1-yl)-5-(2,4,5-trifluorophenyl)-2,3-dihydro-4-methoxylcarboxy-2(1H)-imidazolone] | 8.92 |
